Experimental data taken from patent publication US10260043B2, “Human extensively self-renewing erythroblasts (ESRE)” (UNIVERSITY OF ROCHESTER, priority 2013, dated 2019).

System: murine ESREs
Experiment: murine ESRE self-renewal supported by glucocorticoid
Format: cell-based, mouse
Conditions: as effectively as 10^−6M dexamethasone; preliminary studies
From the text: Other reagents necessary for improving the efficiency with which self-renewing cultures can be derived from human ESCs can be tested. This includes alternate steroids, such as fluticasone proprionate, an extremely potent glucocorticoid agent; our preliminary studies of murine ESREs indicate that doses of fluticasone as low as 10^−9M support erythroblast self-renewal as effectively as 10^−6M dexamethasone. Various lipid additives, including Excyte (Millipore) and Human LDL (Stem Cell Technology) can also be test for to optimizing support human erythroblast self-renewal.

Substance: fluticasone proprionate
- dose that supports erythroblast self-renewal: ≤ 10^−9 M
